Reference: the supplement of paper PMC10307832

Tests used:
Assay in all cases: relative viability (nuclei count vs DMSO), 5 days (fraction); higher = more cells survive
A-427 = tested on: A-427
Procedure, shortened: (§1)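 Lung cancer cell lines were pin-tool dosed in 1536-well plates on the day after seeding, with either a lone drug or a fixed anchor-drug dose plus five library-drug doses (not always all listed) in √10 steps. Nuclei were counted on 4× images after 5 days. Relative viability is the ratio of treated-well to vehicle-well nuclei counts, with each value a median of duplicate plates.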

HCC-15 = tested on: HCC-15
Procedure, shortened: as §1

NCI-H2347 = tested on: NCI-H2347
Procedure, shortened: as §1

PC-3 [JPC-3] = tested on: PC-3 [JPC-3]
Procedure, shortened: as §1

NCI-H1975 = tested on: NCI-H1975
Procedure, shortened: as §1

LC-2-ad = tested on: LC-2-ad
Procedure, shortened: as §1

LXF-289 = tested on: LXF-289
Procedure, shortened: as §1

HCC-78 = tested on: HCC-78
Procedure, shortened: as §1

NCI-H1734 = tested on: NCI-H1734
Procedure, shortened: as §1

NCI-H522 = tested on: NCI-H522
Procedure, shortened: as §1

SW 1573 = tested on: SW 1573
Procedure, shortened: as §1

NCI-H1792 = tested on: NCI-H1792
Procedure, shortened: as §1

NCI-H1755 = tested on: NCI-H1755
Procedure, shortened: as §1

NCI-H2126 = tested on: NCI-H2126
Procedure, shortened: as §1

NCI-H2228 = tested on: NCI-H2228
Procedure, shortened: as §1

NCI-H1915 = tested on: NCI-H1915
Procedure, shortened: as §1

RERF-LC-KJ = tested on: RERF-LC-KJ
Procedure, shortened: as §1

NCI-H647 = tested on: NCI-H647
Procedure, shortened: as §1

NCI-H2342 = tested on: NCI-H2342
Procedure, shortened: as §1

HOP-62 = tested on: HOP-62
Procedure, shortened: as §1

SK-LU-1 = tested on: SK-LU-1
Procedure, shortened: as §1

NCI-H358 = tested on: NCI-H358
Procedure, shortened: as §1

SMILES: O=c1cc(-c2cccc3c2Sc2ccccc2S3)oc(N2CCOCC2)c1 + N=C(N)NC(=N)NCCc1ccccc1 [Phenformin] (partner 250 µM)
- relative viability (A-427; first compound 0.08 µM): 0.282
- relative viability (A-427; first compound 0.253 µM): 0.313
- relative viability (A-427; first compound 0.8 µM): 0.376
- relative viability (A-427; first compound 8 µM): 0.35
- relative viability (HCC-15; first compound 0.08 µM): 0.394
- relative viability (HCC-15; first compound 0.253 µM): 0.608
- relative viability (HCC-15; first compound 0.8 µM): 0.468
- relative viability (HCC-15; first compound 2.53 µM): 0.472
- relative viability (HCC-15; first compound 8 µM): 0.503
- relative viability (NCI-H2347; first compound 0.08 µM): 0.541
- relative viability (NCI-H2347; first compound 0.253 µM): 0.501
- relative viability (NCI-H2347; first compound 0.8 µM): 0.416
- relative viability (NCI-H2347; first compound 2.53 µM): 0.279
- relative viability (NCI-H2347; first compound 8 µM): 0.362
- relative viability (PC-3 [JPC-3]; first compound 0.08 µM): 0.473
- relative viability (PC-3 [JPC-3]; first compound 0.253 µM): 0.458
- relative viability (PC-3 [JPC-3]; first compound 0.8 µM): 0.514
- relative viability (PC-3 [JPC-3]; first compound 2.53 µM): 0.448
- relative viability (PC-3 [JPC-3]; first compound 8 µM): 0.495
- relative viability (NCI-H1975; first compound 0.08 µM): 0.42
- relative viability (NCI-H1975; first compound 0.253 µM): 0.488
- relative viability (NCI-H1975; first compound 0.8 µM): 0.418
- relative viability (NCI-H1975; first compound 2.53 µM): 0.386
- relative viability (NCI-H1975; first compound 8 µM): 0.418
- relative viability (LC-2-ad; first compound 0.08 µM): 0.557
- relative viability (LC-2-ad; first compound 0.253 µM): 0.576
- relative viability (LC-2-ad; first compound 0.8 µM): 0.645
- relative viability (LC-2-ad; first compound 2.53 µM): 0.558
- relative viability (LC-2-ad; first compound 8 µM): 0.592
- relative viability (LXF-289; first compound 0.08 µM): 0.531
- relative viability (LXF-289; first compound 0.253 µM): 0.526
- relative viability (LXF-289; first compound 0.8 µM): 0.556
- relative viability (LXF-289; first compound 2.53 µM): 0.431
- relative viability (LXF-289; first compound 8 µM): 0.558
- relative viability (HCC-78; first compound 0.08 µM): 0.62
- relative viability (HCC-78; first compound 0.253 µM): 0.769
- relative viability (HCC-78; first compound 0.8 µM): 0.638
- relative viability (HCC-78; first compound 2.53 µM): 0.555
- relative viability (HCC-78; first compound 8 µM): 0.667
- relative viability (NCI-H1734; first compound 0.08 µM): 0.36
- relative viability (NCI-H1734; first compound 0.253 µM): 0.45
- relative viability (NCI-H1734; first compound 0.8 µM): 0.417
- relative viability (NCI-H1734; first compound 8 µM): 0.436
- relative viability (NCI-H522; first compound 0.08 µM): 0.56
- relative viability (NCI-H522; first compound 0.253 µM): 0.689
- relative viability (NCI-H522; first compound 0.8 µM): 0.622
- relative viability (NCI-H522; first compound 2.53 µM): 0.556
- relative viability (NCI-H522; first compound 8 µM): 0.67
- relative viability (SW 1573; first compound 0.08 µM): 0.38
- relative viability (SW 1573; first compound 0.253 µM): 0.369
- relative viability (SW 1573; first compound 0.8 µM): 0.339
- relative viability (SW 1573; first compound 2.53 µM): 0.347
- relative viability (SW 1573; first compound 8 µM): 0.364
- relative viability (NCI-H1792; first compound 0.08 µM): 0.185
- relative viability (NCI-H1792; first compound 0.253 µM): 0.349
- relative viability (NCI-H1792; first compound 0.8 µM): 0.258
- relative viability (NCI-H1792; first compound 2.53 µM): 0.168
- relative viability (NCI-H1792; first compound 8 µM): 0.345
- relative viability (NCI-H1755; first compound 0.08 µM): 0.625
- relative viability (NCI-H1755; first compound 0.253 µM): 0.694
- relative viability (NCI-H1755; first compound 0.8 µM): 0.597
- relative viability (NCI-H1755; first compound 2.53 µM): 0.545
- relative viability (NCI-H1755; first compound 8 µM): 0.653
- relative viability (NCI-H2126; first compound 0.08 µM): 0.53
- relative viability (NCI-H2126; first compound 0.253 µM): 0.584
- relative viability (NCI-H2126; first compound 0.8 µM): 0.482
- relative viability (NCI-H2126; first compound 2.53 µM): 0.517
- relative viability (NCI-H2126; first compound 8 µM): 0.521
- relative viability (NCI-H2228; first compound 0.08 µM): 0.346
- relative viability (NCI-H2228; first compound 0.253 µM): 0.25
- relative viability (NCI-H2228; first compound 0.8 µM): 0.426
- relative viability (NCI-H2228; first compound 2.53 µM): 0.267
- relative viability (NCI-H2228; first compound 8 µM): 0.277
- relative viability (NCI-H1915; first compound 0.08 µM): 0.37
- relative viability (NCI-H1915; first compound 0.253 µM): 0.4
- relative viability (NCI-H1915; first compound 0.8 µM): 0.436
- relative viability (NCI-H1915; first compound 2.53 µM): 0.355
- relative viability (NCI-H1915; first compound 8 µM): 0.406
- relative viability (RERF-LC-KJ; first compound 0.08 µM): 0.4
- relative viability (RERF-LC-KJ; first compound 0.253 µM): 0.426
- relative viability (RERF-LC-KJ; first compound 0.8 µM): 0.465
- relative viability (RERF-LC-KJ; first compound 2.53 µM): 0.444
- relative viability (RERF-LC-KJ; first compound 8 µM): 0.406
- relative viability (NCI-H647; first compound 0.08 µM): 0.572
- relative viability (NCI-H647; first compound 0.253 µM): 0.838
- relative viability (NCI-H647; first compound 0.8 µM): 0.547
- relative viability (NCI-H647; first compound 2.53 µM): 0.476
- relative viability (NCI-H647; first compound 8 µM): 0.487
- relative viability (NCI-H2342; first compound 0.08 µM): 0.526
- relative viability (NCI-H2342; first compound 0.253 µM): 0.62
- relative viability (NCI-H2342; first compound 0.8 µM): 0.542
- relative viability (NCI-H2342; first compound 2.53 µM): 0.557
- relative viability (NCI-H2342; first compound 8 µM): 0.608
- relative viability (HOP-62; first compound 0.08 µM): 0.714
- relative viability (HOP-62; first compound 0.253 µM): 0.899
- relative viability (HOP-62; first compound 0.8 µM): 0.688
- relative viability (HOP-62; first compound 2.53 µM): 0.663
- relative viability (HOP-62; first compound 8 µM): 0.799
- relative viability (SK-LU-1; first compound 0.08 µM): 0.545
- relative viability (SK-LU-1; first compound 0.253 µM): 0.551
- relative viability (SK-LU-1; first compound 0.8 µM): 0.737
- relative viability (SK-LU-1; first compound 2.53 µM): 0.459
- relative viability (SK-LU-1; first compound 8 µM): 0.527
- relative viability (NCI-H358; first compound 0.08 µM): 0.301
- relative viability (NCI-H358; first compound 0.253 µM): 0.436
- relative viability (NCI-H358; first compound 0.8 µM): 0.378
- relative viability (NCI-H358; first compound 2.53 µM): 0.362
- relative viability (NCI-H358; first compound 8 µM): 0.356
